Test [1] deals with Sodium-dependent serotonin transporter (Homo sapiens, UniProt P31645).
The target in test [2] is Sodium-dependent dopamine transporter (Homo sapiens, UniProt Q01959).

For orientation: IC50 means the midpoint of a concentration-inhibition curve. A high value points to weaker potency.

A value given as a limit tells only on which side of the number the result lay.

Sequence of Sodium-dependent dopamine transporter (Q01959 whole entry): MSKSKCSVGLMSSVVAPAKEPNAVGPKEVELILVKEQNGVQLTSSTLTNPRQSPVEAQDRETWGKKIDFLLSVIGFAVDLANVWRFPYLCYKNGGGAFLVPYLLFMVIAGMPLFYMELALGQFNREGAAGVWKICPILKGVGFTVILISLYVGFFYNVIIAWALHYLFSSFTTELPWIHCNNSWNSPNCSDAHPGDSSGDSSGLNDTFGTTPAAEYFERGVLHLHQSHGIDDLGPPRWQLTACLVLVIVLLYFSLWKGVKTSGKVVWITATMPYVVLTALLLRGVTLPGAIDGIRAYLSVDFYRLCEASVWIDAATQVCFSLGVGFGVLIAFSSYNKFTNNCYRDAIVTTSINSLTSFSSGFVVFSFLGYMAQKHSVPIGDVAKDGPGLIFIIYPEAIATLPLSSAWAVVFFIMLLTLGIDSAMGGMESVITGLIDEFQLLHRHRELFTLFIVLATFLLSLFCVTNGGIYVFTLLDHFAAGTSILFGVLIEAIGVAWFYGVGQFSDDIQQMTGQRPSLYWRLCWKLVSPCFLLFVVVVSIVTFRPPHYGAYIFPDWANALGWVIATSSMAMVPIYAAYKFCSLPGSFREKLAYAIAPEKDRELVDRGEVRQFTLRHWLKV
Sequence of Sodium-dependent serotonin transporter (P31645 whole entry): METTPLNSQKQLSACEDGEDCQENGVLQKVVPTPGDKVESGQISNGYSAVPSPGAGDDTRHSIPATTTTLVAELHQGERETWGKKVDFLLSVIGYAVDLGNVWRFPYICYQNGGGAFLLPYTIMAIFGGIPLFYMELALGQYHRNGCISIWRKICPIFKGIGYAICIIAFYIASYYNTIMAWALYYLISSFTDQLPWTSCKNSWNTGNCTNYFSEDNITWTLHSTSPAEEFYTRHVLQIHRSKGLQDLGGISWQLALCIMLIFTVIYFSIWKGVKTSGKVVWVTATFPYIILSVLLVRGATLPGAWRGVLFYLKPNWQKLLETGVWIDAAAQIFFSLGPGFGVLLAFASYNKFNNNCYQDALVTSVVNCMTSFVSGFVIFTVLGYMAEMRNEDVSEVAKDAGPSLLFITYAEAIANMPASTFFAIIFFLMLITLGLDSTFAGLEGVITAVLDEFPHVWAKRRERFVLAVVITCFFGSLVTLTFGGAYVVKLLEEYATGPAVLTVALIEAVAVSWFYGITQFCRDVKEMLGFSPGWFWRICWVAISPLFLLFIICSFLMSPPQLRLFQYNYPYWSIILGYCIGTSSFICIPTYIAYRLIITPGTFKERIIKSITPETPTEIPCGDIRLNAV

Consider `CCN(CC)C(=O)[C@@]1(c2ccccc2)CC1CNC` (mixture of isomers), for which the IC50 was 5.4 µM in test [1] and over 10 µM in test [2].

Take `NCC(=O)NCC1CC1(C(=O)N1CCc2ccccc21)c1ccccc1` (racemic): the figures for the IC50 in test [1] and in test [2] were 0.077 µM and over 10 µM, respectively. In test [2], `NCC1CC1(C(=O)C1NCCc2ccccc21)c1ccccc1` (racemic) registered a concentration for half-maximal inhibition (IC50) of over 10 µM. `CCCN(CC)C(=O)C1(c2ccccc2)CC1CN` (racemic): the half-inhibitory concentration (IC50) in test [1] is 1.7 µM; in test [2], over 10 µM.

On to `NCC1C[C@@]1(C(=O)N1CCCC1)c1ccccc1` (mixture of isomers), for which, in test [2], the half-inhibitory concentration (IC50) is over 10 µM. On to `CCN(CC)C(=O)C1(c2ccccc2)CC1CNCc1ncco1` (racemic), for which the IC50 is 1.6 µM in test [1] and over 10 µM in test [2]. Consider `CCN(CC)C(=O)C1(c2ccccc2)CC1CNCc1cccnc1` (racemic), for which the IC50 in test [1] and in test [2] was over 10 µM in each case. For the compound `NCC1CC1(C(=O)N1CCCCCC1)c1ccccc1` (racemic), the IC50 in test [1] is 0.64 µM; in test [2], over 10 µM.

For the compound `CCN(C(=O)C1(c2ccccc2)CC1CN)C(C)(C)C` (racemic), the IC50 in test [1] and in test [2] was over 10 µM in each case. As for `NCC1CC1(C(=O)Nc1ccccc1)c1ccccc1` (racemic), the concentration for half-maximal inhibition (IC50) in test [1] and in test [2] was over 10 µM throughout.

Turning to `NCC1CC1(C(=O)NC1CC1)c1ccccc1` (racemic), the half-maximal inhibitory concentration (IC50) in test [1] and in test [2] was over 10 µM throughout. As to `NCC1CC1(C(=O)N1CCc2ccccc21)c1ccccc1` (racemic), the IC50 in test [1] is 0.013 µM; in test [2] it was 3.9 µM.

With `CCN(C)C(=O)C1(c2ccccc2)CC1CN` (racemic), the half-maximal inhibitory concentration (IC50) in test [1] was 0.83 µM; in test [2], 2.4 µM.

As to `CCCCN(CC)C(=O)C1(c2ccccc2)CC1CN` (racemic), the results for the IC50 in test [1] and in test [2] were 2 µM and over 10 µM, respectively.

For `NCC1CC1(C(=O)N1CCCc2ccccc21)c1ccccc1` (racemic), the results for the 50% inhibitory concentration (IC50) in test [1] and in test [2] were 0.1 µM and over 10 µM, respectively. `CC(C)N(C(=O)C1(c2ccccc2)CC1CNC(=O)CN)C(C)C` (racemic): the 50% inhibitory concentration (IC50) is over 10 µM in test [1] and 4.6 µM in test [2]. Regarding `CCN(CC)C(=O)C1(c2ccccc2)CC1CN(C)C` (racemic) [N,N-DIMETHYL MILNACIPRAN], the IC50 was over 10 µM in test [1] and 4.5 µM in test [2].

Regarding `CCN(CC)C(=O)C1(c2ccccc2)CC1CNCc1ccccn1` (racemic), the IC50 in test [1] was 3.5 µM; in test [2], 6.2 µM. Turning to `CCN(CC)C(=O)C1(c2ccccc2)CC1CNCc1cnco1` (racemic), the results for the 50% inhibitory concentration (IC50) in test [1] and in test [2] were 4.8 µM and over 10 µM, respectively. Compound `NCC(=O)NCC1CC1(C(=O)C1NCCc2ccccc21)c1ccccc1` (racemic) had a half-inhibitory concentration (IC50) in test [2] of over 10 µM. With `CCN(CC)C(=O)C1(c2ccccc2)CC1CNCc1ccncc1` (racemic), the IC50 in test [1] and in test [2] was over 10 µM each time. For `NCC1CC1(C(=O)N1CCOCC1)c1ccccc1` (racemic), the concentration for half-maximal inhibition (IC50) in test [1] was 1.7 µM; in test [2] it was 7.4 µM.

On to `CCN(CC)C(=O)C1(c2ccccc2)CC1CNCC(OC)OC` (racemic), for which the IC50 in test [1] is 1.1 µM; in test [2] it was over 10 µM. On the same counts, the results for `CCN(CC)C(=O)C1(c2ccccc2)CC1CNCC(C)C` (racemic) are over 10 µM and over 10 µM. On the same counts, the results for `NCC1CC1(C(=O)N1CCCCC1)c1ccccc1` (racemic) are 1.2 µM and 4.6 µM. Consider `CCN(CC)C(=O)C1(c2ccccc2)CC1CNCc1ccc[nH]1` (racemic), for which the IC50 in test [1] was 4.4 µM; in test [2] it was over 10 µM. Turning to `CCCCNCC1CC1(C(=O)N(CC)CC)c1ccccc1` (racemic), the IC50 in test [1] and in test [2] was over 10 µM each time. `CCN(C(=O)C1(c2ccccc2)CC1CN)C1CCCCC1` (racemic): the IC50 is 7.5 µM in test [1] and over 10 µM in test [2]. For the compound `CCNC(=O)[C@@]1(c2ccccc2)CC1CN` (mixture of isomers), the IC50 in test [1] and in test [2] was over 10 µM throughout. As to `NCC1CC1(C(=O)NCc1ccccc1)c1ccccc1` (racemic), the half-maximal inhibitory concentration (IC50) was 3.2 µM in test [1] and over 10 µM in test [2]. On the same counts, the results for `CCN(CC)C(=O)[C@@]1(c2ccccc2)C[C@H]1CNC(=O)CN` (racemic) are 2.2 µM and over 10 µM. As to `CCN(C(=O)C1(c2ccccc2)CC1CN)c1ccccc1` (racemic), the IC50 in test [1] was 4.4 µM; in test [2] it was over 10 µM. Regarding `CCN(CCOC)C(=O)C1(c2ccccc2)CC1CN` (racemic), the IC50 in test [1] was 1.3 µM; in test [2] it was over 10 µM. On the same counts, the results for `CCN(Cc1ccccc1)C(=O)C1(c2ccccc2)CC1CN` (racemic) are 0.16 µM and over 10 µM. Turning to `CCN(CC)C(=O)C1(c2ccccc2)CC1CNCc1ccco1` (racemic), the IC50 in test [1] and in test [2] was over 10 µM throughout. Consider `CCNCC1CC1(C(=O)N(CC)CC)c1ccccc1` (racemic), for which the 50% inhibitory concentration (IC50) in test [1] is 1.3 µM; in test [2], over 10 µM. In the case of `CC(C)N(C(=O)[C@@]1(c2ccccc2)CC1CN)C(C)C` (mixture of isomers), the IC50 in test [1] and in test [2] was over 10 µM each time.

Regarding `CCN(CC)C(=O)C1(c2ccccc2)CC1CNCC1CCCC1` (racemic), the half-maximal inhibitory concentration (IC50) in test [1] and in test [2] was over 10 µM each time. On to `C=CCN(CC)C(=O)C1(c2ccccc2)CC1CN` (racemic), for which the IC50 was 0.28 µM in test [1] and over 10 µM in test [2].

The record behind these values is ChEMBL document CHEMBL1143218 (Bioorg Med Chem Lett, 2008).
